The target in test [1] is T1, human ALK5 (Homo sapiens, UniProt P36897).
T1 sequence (P36897 162-503): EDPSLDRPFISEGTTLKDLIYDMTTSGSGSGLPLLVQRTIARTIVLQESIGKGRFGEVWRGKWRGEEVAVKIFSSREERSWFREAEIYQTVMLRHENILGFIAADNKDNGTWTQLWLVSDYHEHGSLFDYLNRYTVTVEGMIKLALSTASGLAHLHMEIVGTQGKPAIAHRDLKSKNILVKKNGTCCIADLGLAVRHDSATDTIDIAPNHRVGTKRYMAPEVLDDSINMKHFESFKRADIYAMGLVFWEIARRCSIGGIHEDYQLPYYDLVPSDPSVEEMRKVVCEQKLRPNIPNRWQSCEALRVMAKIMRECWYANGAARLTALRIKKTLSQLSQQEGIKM
Put plainly: ALK5 Enzyme Assay 2 (fluorescence polarisation probe displacement). The conditions noted are these: read-out: EAA2: activity (μM) using Enzyme Assay 2. The arrangement: 6His tagged human ALK5 (residues162-503) was grown and purified from insect cells; 6His; made in house; host or cells: insect cells. The class given is binding. An outline of the steps: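 Recombinant ALK5 (3 μg/mL) incubated with test compound in 50 mM HEPES pH7.4, 10 mM MgCl2, 1 mM DTT, 0.01% CHAPS. Displacement of a fluorescent quinazoline-based ALK5 probe (50 nM final) in presence of 1 μM ATP read by fluorescence polarisation.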
In general terms: Fluorescence polarisation rises when a labelled molecule tumbles more slowly, as on binding a larger partner.

For test [2], the target named is T1, human ALK5. Kind of test: ALK5 Enzyme Assay 1. The class given is biochemical. Further details: 6His tagged ALK5 protein (amino acids 162-503) expressed in insect cells; 6His; made in house; host or cells: insect cells. The following applies: read-out: EAA: activity (μM) using Enzyme Assay 1. The protocol:
This assay measures the ability of a compound to bind to and inhibit the activity of ALK5 protein in vitro. […] Assay measurements were performed in assay buffer comprising 60 mM HEPES pH 7.4, 3 mM MgCl2, 3 mM MnCl2, 3 μM Na orthovanadate, 1.2 mM DTT and 0.05% PEG2000. […] Reactions were performed in the presence of 200 μg/mL casein (Sigma-Aldrich C4765-10ML), 200 ng/mL ALK5, 0.5 μM ATP (Sigma-Aldrich A7699), 1 μCi/mL γ-33P ATP. Following addition of casein, ATP and compound, reactions were initiated by adding ALK5 enzyme and reactions run for 90 minutes. After incubation reactions were terminated by addition of 20 μL per well of 50% orthophosphoric acid. 20 minutes after addition of 70% v/v TCA, precipitated protein was transferred to GF/C 96 well plates using a Tomtec harvester with 1.5% orthophosphoric acid. […] All reactions were performed under linear kinetics.

SMILES strings stand for the structures. “And” between values parts separate entries of the source, which are not always exact repeats. Equal values may be shown once.

Take `Cc1cc(Oc2ccnc(Nc3cccc(C#N)c3)c2)c(-c2ccccn2)nc1C` [Example 41, 3-{[4-(5,6-Dimethyl-2-pyridin-2-yl-pyridin-3-yl)oxypyridin-2-yl]-amino}-benzonitrile]: the IC50 on human ALK5 [1] turned out to be 0.0123 µM; at human ALK5 [2], 0.0141 µM. Turning to `COc1cc(Nc2cc(Oc3ccc(C)nc3-c3cscc3C)ccn2)cc(OC)c1OC` [Example 46, 4-[6-Methyl-2-(4-methylthiophen-3-yl)pyridin-3-yl]oxy-N-(3,4,5-trimethoxyphenyl)pyridin-2-amine], the IC50 on human ALK5 [1] amounted to 0.0175 µM; on human ALK5 [2] it was 0.0153 µM.

With `COc1cc(Nc2cc(Oc3cccnc3C)ccn2)cc(OC)c1OC` [Example 9, 4-(2-Methylpyridin-3-yl)oxy-N-(3,4,5-trimethoxyphenyl)-pyridin-2-amine], the IC50 on human ALK5 [1] is 0.187 µM; on human ALK5 [2] it was 0.114 µM.

Consider `Cc1cc(Oc2ccnc(Nc3ccc(CO)cc3)c2)c(-c2ccccn2)nc1C` [Example 33, (4-{[4-(5,6-Dimethyl-2-pyridin-2-yl-pyridin-3-yl)-oxypyridin-2-yl]amino}phenyl)methanol], for which the IC50 on human ALK5 [1] is 0.0167 µM; at human ALK5 [2], 0.0172 µM.

In the case of `COc1cc(Nc2cc(Oc3ccc(C)nc3-c3ccccn3)ccn2)cc(OC)c1OC` [Example 47, 4-(6-Methyl-2-pyridin-2-yl-pyridin-3-yl)oxy-N-(3,4,5-trimethoxy-phenyl)pyridin-2-amine], the values for the IC50 on human ALK5 [1] and at human ALK5 [2] were 0.0108 µM and 0.0248 µM, respectively. Consider `Cc1cc(Oc2ccnc(Nc3cccnc3)c2)c(-c2ccccn2)nc1C` [Example 15, 4-(5,6-Dimethyl-2-pyridin-2-yl-pyridin-3-yl)oxy-N-pyridin-3-yl-pyridin-2-amine], for which the values for the IC50 at human ALK5 [1] and at human ALK5 [2] were 0.0147 µM and 0.0129 µM, respectively.

Regarding `Cc1cc(Oc2ccnc(Nc3ccccc3Cl)c2)c(-c2ccccn2)nc1C` [Example 194B, N-(2-Chlorophenyl)-4-(5,6-dimethyl-2-pyridin-2-ylpyridin-3-yl)-oxypyridin-2-amine], at human ALK5 [2], the IC50 came out at 2.8 µM.

For `Cc1cc(Oc2ccnc(Nc3ccc4cc[nH]c4c3)c2)c(-c2ccccn2)nc1C` [Example 40, N-[4-(5,6-Dimethyl-2-pyridin-2-yl-pyridin-3-yl)-oxypyridin-2-yl]-1H-indol-6-amine], the IC50 on human ALK5 [2] is 1.14 µM and 1.11 µM. Same read-out and setting: in the case of `Cc1cc(Oc2ccnc(Nc3ccccn3)c2)c(-c2ccccn2)nc1C` [Example 14, 4-(5,6-Dimethyl-2-pyridin-2-yl-pyridin-3-yl)oxy-N-pyridin-2-yl-pyridin-2-amine] it was 0.0255 µM and 0.00856 µM; in that of `Cc1cc(Oc2ccnc(Nc3ccn(C)n3)c2)c(-c2ccccn2)nc1C` [Example 39, 4-(5,6-Dimethyl-2-pyridin-2-yl-pyridin-3-yl)oxy-N-(1-methylpyrazol-3-yl)-pyridin-2-amine], 0.0935 µM; in that of `COc1cc(Nc2cc(Oc3ccc(C)nc3-c3ccnc4ccccc34)ccn2)cc(OC)c1OC` [Example 170, 4-[6-Methyl-2-(quinolin-4-yl)pyridin-3-yloxy]-N-(3,4,5-trimethoxyphenyl)pyridin-2-amine], 0.615 µM. Regarding `Cc1ccc(Oc2ccnc(Nc3ccc(C(=O)O)cc3)c2)c(C)n1` [Example 205, Lithium 4-{[4-(2,6-dimethylpyridin-3-yl)oxypyridin-2-yl]-amino}benzoate], the IC50 at human ALK5 [2] is 0.15 µM. Same read-out and setting: in the case of `Cc1cc(Oc2ccnc(Nc3ccccc3)c2)c(-c2ccccn2)nc1C` [Example 24, 4-(5,6-Dimethyl-2-pyridin-2-yl-pyridin-3-yl)oxy-N-phenyl-pyridin-2-amine] it was 0.00417 µM. As for `Cc1ccc(Oc2ccnc(Nc3ccc(C(=O)NCCN4CCCCC4)cc3)c2)c(C)n1` [Example 217, 4-{[4-(2,6-Dimethylpyridin-3-yl)oxypyridin-2-yl]amino}-N-(2-piperidin-1-ylethyl)benzamide], at human ALK5 [1], the IC50 was 0.0121 µM.

In the case of `Cc1ccc(Oc2ccnc(Nc3ccc(S(=O)(=O)NCCn4ccnc4)cc3)c2)c(C)n1` [Example 135, 4-{[4-(2,6-Dimethylpyridin-3-yl)oxypyridin-2-yl]amino}-N-(2-imidazol-1-ylethyl)benzenesulfonamide], the IC50 at human ALK5 [1] turned out to be 0.12 µM. With `Cc1ccc(Oc2ccnc(Nc3ccc(S(=O)(=O)NC4CCC4)cc3)c2)c(C)n1` [Example 113, N-Cyclobutyl-4-{[4-(2,6-dimethylpyridin-3-yl)oxypyridin-2-yl]-amino}benzenesulfonamide], the IC50 on human ALK5 [1] amounted to 0.288 µM. Same read-out and setting: then `Cc1ccc(Oc2ccnc(Nc3ccc(C(=O)NCCN4CC5CCC(C4)O5)cc3)c2)c(C)n1` [Example 218, 4-{[4-(2,6-Dimethylpyridin-3-yl)oxypyridin-2-yl]amino}-N-[2-(8-oxa-3-azabicyclo[3.2.1]octan-3-yl)ethyl]benzamide], with 0.0495 µM; and `Cc1ccc(Oc2ccnc(Nc3cccc(CN4CCN(C(C)C(N)=O)CC4)c3)c2)c(C)n1` (stereo not drawn) [Example 190, 2-14-[3-({4-[(2,6-dimethylpyridin-3-yl)oxylpyridin-2-yl}amino)-benzyl]piperazin-1-yl}propanamide], with 0.0322 µM; and `Cc1ccc(Oc2ccnc(Nc3ccc(C(=O)NCCn4cccc4)cc3)c2)c(C)n1` [Example 216, 4-{[4-(2,6-Dimethylpyridin-3-yl)oxypyridin-2-yl]amino}-N-(2-pyrrol-1-ylethyl)benzamide], with 0.108 µM. Still for that read-out and setting: in the case of `Cc1ccc(Oc2ccnc(Nc3ccccc3)c2)c(C(=O)NCCc2ccccc2)n1` [Example 95, 3-(2-Anilinopyridin-4-yl)oxy-6-methyl-N-phenethylpyridine-2-carboxamide] it was 0.0209 µM. In the case of `COc1ccc(NC(C)=O)cc1Nc1cc(Oc2cc(C)c(C)nc2-c2ccccn2)ccn1` [Example 73, N-(3-{[4-(5,6-Dimethyl-2-pyridin-2-ylpyridin-3-yl)oxypyridin-2-yl]-amino}-4-methoxyphenyl)acetamide], the IC50 on human ALK5 [2] was 0.454 µM. `Cc1ccc(Oc2ccnc(Nc3cccc(C(=O)N(C)C)c3)c2)c(C)n1` [Example 62, 3-{[4-(2,6-Dimethylpyridin-3-yl)oxypyridin-2-yl]amino}-N,N-dimethylbenzamide]: the IC50 at human ALK5 [1] was found to be 0.0535 µM.

As for `COc1ccc(-c2nc(C)ccc2Oc2ccnc(Nc3cc(OC)c(OC)c(OC)c3)c2)cn1` [Example 169, 4-(6′-Methoxy-6-methyl-2,3′-bipyridin-3-yloxy)-N-(3,4,5-trimethoxyphenyl)pyridin-2-amine], the IC50 on human ALK5 [1] worked out at 0.0751 µM.

Turning to `Cc1ccc(Oc2ccnc(Nc3cccc(C(=O)N4CC[C@H](S(C)(=O)=O)C4)c3)c2)c(C)n1` (single isomer, unassigned) [Example 138], on human ALK5 [1], the IC50 was determined as 0.0143 µM. On to `Cc1cc(Oc2ccnc(Nc3cccc(C(=O)N4CCCCCC4)c3)c2)c(-c2ccccn2)nc1C` [Example 102, Azepan-1-yl-(3-{[4-(5,6-dimethyl-2-pyridin-2-ylpyridin-3-yl)-oxypyridin-2-yl]amino}phenyl)methanone], for which the IC50 on human ALK5 [1] stood at 0.0113 µM.

For `Cc1ccc(Oc2ccnc(Nc3ccc(OCC(O)CNC(C)C)cc3)c2)c(C)n1` (stereo not drawn) [Example 129, 1-(4-{[4-(2,6-Dimethylpyridin-3-yl)oxypyridin-2-yl]amino}-phenoxy)-3-(propan-2-ylamino)propan-2-ol], the IC50 at human ALK5 [1] amounted to 0.103 µM. `Cc1ccc(Oc2ccnc(Nc3ccccn3)c2)c(C)n1` [Example 153, 4-(2,6-Dimethylpyridin-3-yl)oxy-N-pyridin-2-ylpyridin-2-amine]: the IC50 at human ALK5 [1] worked out at 0.0238 µM.

In the case of `CCCCCNC(=O)N1CCN(Cc2cccc(Nc3cc(Oc4ccc(C)nc4C)ccn3)c2)CC1` [Example 181, 4-[(3-{[4-(2,6-Dimethylpyridin-3-yl)oxypyridin-2-yl]amino}-phenyl)methyl]-N-pentylpiperazine-1-carboxamide], the IC50 at human ALK5 [1] is 0.0159 µM. Turning to `Cc1cc(Oc2ccnc(Nc3cccc(-c4cnco4)c3)c2)c(-c2ccccn2)nc1C` [Example 77, 4-(5,6-Dimethyl-2-pyridin-2-ylpyridin-3-yl)oxy-N-[3-(1.3-oxazol-5-yl)phenyl]pyridin-2-amine], the IC50 at human ALK5 [1] was 0.00862 µM. On to `COc1cc(Nc2cc(Oc3ccc(C)nc3C3CCCO3)ccn2)cc(OC)c1OC` (stereo not drawn) [Example 167, 4-[6-Methyl-2-(oxolan-2-yl)pyridin-3-yl]oxy-N-(3,4,5-trimethoxy-phenyl)pyridin-2-amine], for which the IC50 on human ALK5 [1] is 0.0568 µM.

For the origin of these results see US20090048269A1 (AstraZeneca AB, priority 2007, published 2009).
